Results from ChEMBL document CHEMBL5291721, “A preclinical secondary pharmacology resource illuminates target-adverse drug reaction associations of marketed drugs” (Nat Commun, 2023).

Tests used:
Melanocortin receptor 3 = Melanocortin receptor 3 (Homo sapiens, UniProt P41968)
[1] = molecular target: T1, Muscarinic acetylcholine receptor M2 (Homo sapiens, UniProt P08172); type: functional, cell-based
T1 sequence (P08172 whole entry): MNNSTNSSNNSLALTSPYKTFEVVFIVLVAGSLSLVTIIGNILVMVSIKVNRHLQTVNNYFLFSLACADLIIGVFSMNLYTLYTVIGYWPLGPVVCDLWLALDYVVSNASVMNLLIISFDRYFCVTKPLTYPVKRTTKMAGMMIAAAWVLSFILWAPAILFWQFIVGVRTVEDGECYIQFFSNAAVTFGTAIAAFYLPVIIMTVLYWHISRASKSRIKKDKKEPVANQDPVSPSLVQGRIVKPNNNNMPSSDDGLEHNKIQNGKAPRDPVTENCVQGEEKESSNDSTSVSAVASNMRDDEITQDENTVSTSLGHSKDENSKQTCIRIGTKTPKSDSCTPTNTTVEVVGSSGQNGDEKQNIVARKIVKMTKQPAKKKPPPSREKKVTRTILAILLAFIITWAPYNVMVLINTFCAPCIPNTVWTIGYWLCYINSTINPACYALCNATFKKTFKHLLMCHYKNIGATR

Thromboxane A2 receptor = molecular target: T2, Thromboxane A2 receptor (Homo sapiens, UniProt P21731)
T2 sequence (P21731 whole entry): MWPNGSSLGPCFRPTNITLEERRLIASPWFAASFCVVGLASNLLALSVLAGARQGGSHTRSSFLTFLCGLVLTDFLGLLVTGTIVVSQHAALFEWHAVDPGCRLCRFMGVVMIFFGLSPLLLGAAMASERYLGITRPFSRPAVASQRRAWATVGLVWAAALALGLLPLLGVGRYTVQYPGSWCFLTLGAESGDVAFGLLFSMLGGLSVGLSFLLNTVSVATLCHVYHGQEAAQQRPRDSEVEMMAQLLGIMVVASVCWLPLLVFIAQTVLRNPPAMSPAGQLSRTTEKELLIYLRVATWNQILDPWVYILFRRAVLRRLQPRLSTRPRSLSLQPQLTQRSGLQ

[2] = molecular target: T3, Neuropeptide Y receptor type 1 (Homo sapiens, UniProt P25929)
T3 sequence (P25929 whole entry): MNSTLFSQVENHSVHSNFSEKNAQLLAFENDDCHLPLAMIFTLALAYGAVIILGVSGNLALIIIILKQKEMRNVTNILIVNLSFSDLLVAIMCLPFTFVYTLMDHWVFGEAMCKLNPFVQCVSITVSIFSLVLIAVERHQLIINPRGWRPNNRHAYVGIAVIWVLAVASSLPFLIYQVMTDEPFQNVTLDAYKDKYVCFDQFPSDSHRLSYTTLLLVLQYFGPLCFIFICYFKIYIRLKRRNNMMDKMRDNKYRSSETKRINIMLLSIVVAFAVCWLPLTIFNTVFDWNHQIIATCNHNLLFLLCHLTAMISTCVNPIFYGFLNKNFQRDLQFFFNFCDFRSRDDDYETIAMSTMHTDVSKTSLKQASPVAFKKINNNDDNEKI

[3] = molecular target: Voltage-gated inwardly rectifying potassium channel KCNH2 (Homo sapiens, UniProt Q12809); type: functional; settings: read-out: AC50
Sequence of Voltage-gated inwardly rectifying potassium channel KCNH2 (Q12809 whole entry): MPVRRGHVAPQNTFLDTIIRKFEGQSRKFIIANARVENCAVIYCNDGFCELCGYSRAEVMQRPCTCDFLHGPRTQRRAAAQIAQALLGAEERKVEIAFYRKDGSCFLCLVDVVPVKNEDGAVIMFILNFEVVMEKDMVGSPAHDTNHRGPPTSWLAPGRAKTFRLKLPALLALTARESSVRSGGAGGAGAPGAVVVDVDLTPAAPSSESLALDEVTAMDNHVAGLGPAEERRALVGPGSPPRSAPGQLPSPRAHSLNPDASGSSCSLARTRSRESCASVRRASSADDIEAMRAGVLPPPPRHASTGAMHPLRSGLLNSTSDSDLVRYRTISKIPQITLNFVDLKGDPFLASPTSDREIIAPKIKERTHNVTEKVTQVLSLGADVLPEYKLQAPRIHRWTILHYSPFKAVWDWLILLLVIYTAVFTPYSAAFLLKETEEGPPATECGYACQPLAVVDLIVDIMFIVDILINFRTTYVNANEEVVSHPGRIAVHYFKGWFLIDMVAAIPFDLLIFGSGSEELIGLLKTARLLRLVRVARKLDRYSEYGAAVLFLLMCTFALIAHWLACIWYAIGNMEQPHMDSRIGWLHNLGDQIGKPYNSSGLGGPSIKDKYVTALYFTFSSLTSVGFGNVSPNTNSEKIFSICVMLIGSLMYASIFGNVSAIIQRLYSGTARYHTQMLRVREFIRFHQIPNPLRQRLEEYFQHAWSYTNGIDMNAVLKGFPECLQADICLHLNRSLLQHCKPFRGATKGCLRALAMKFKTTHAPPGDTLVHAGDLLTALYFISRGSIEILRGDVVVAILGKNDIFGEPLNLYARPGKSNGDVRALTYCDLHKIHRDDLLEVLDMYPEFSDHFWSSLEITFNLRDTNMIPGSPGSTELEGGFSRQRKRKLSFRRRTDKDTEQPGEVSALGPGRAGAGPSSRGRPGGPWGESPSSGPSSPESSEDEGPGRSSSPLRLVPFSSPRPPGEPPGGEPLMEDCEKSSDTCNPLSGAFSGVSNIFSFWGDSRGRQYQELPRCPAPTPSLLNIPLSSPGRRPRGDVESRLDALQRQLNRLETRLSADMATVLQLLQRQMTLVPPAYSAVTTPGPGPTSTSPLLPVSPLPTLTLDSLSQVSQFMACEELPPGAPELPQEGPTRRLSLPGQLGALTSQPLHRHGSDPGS

D(3) dopamine receptor = D(3) dopamine receptor (Homo sapiens, UniProt P35462)
Sequence of D(3) dopamine receptor (P35462 whole entry): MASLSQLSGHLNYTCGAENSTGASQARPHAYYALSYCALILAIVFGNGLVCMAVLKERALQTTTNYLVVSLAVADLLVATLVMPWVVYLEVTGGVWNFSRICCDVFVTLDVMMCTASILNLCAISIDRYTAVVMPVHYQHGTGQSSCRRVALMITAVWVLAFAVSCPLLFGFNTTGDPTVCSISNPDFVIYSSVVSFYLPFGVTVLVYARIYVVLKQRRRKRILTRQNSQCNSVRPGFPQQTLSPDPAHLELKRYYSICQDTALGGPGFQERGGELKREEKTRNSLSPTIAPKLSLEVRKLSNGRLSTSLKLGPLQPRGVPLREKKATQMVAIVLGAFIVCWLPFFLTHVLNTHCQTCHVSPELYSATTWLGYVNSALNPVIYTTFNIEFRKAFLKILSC

Progesterone receptor = molecular target: T4, Progesterone receptor (Homo sapiens, UniProt P06401); type: functional
T4 sequence (P06401 whole entry): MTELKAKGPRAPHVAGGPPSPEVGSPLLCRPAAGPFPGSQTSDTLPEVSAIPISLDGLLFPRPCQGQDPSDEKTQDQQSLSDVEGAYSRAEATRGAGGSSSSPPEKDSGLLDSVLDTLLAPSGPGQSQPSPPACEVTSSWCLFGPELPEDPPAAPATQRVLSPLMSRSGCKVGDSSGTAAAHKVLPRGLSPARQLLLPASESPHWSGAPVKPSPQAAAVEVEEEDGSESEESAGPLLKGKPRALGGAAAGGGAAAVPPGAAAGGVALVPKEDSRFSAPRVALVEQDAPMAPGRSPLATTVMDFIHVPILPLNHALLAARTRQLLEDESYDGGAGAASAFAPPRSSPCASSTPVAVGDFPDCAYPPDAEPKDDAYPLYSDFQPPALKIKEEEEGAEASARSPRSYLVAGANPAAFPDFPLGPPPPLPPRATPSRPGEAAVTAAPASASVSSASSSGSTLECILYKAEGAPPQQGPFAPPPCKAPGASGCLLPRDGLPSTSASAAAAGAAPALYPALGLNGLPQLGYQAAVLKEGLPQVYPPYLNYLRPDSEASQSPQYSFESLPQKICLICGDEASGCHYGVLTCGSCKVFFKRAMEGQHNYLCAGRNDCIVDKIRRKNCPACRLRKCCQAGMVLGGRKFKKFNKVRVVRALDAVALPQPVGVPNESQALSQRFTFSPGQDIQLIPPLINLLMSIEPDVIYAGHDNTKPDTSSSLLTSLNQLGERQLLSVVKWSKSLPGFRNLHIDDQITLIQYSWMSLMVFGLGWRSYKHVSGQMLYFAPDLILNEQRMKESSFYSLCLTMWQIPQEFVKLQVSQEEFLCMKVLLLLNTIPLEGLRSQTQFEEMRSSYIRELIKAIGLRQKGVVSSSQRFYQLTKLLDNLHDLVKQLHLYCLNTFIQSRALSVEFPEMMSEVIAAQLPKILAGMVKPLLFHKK

[4] = molecular target: Gamma-aminobutyric acid receptor subunit alpha-1 (Rattus norvegicus, UniProt P62813)
Sequence of Gamma-aminobutyric acid receptor subunit alpha-1 (P62813 whole entry): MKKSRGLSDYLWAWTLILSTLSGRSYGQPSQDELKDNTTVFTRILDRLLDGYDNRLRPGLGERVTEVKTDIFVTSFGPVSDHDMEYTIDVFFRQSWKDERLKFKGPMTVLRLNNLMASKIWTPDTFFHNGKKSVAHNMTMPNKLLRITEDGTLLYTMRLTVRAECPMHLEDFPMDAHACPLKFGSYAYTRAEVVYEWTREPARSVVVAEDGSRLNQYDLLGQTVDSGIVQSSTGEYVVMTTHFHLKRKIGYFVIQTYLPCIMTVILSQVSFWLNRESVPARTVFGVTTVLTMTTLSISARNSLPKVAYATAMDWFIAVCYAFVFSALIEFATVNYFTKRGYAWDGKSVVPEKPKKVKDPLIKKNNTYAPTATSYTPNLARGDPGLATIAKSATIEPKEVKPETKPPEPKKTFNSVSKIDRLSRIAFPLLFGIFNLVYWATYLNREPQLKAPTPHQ

[5] = molecular target: T1, Muscarinic acetylcholine receptor M2; type: functional, cell-based; remark: listed apart in the source
[6] = molecular target: Delta-type opioid receptor (Homo sapiens, UniProt P41143)
Sequence of Delta-type opioid receptor (P41143 whole entry): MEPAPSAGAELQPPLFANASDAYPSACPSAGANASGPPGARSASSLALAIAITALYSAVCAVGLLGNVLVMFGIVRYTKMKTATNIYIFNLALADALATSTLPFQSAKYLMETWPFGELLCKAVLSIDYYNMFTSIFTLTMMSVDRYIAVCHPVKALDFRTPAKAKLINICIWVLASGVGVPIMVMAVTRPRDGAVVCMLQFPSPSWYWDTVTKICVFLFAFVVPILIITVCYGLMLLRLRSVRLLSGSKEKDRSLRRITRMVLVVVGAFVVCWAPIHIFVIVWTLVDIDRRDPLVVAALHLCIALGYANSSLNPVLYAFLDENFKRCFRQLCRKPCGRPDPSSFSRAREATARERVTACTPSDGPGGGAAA

[7] = molecular target: Neuronal acetylcholine receptor subunit alpha-4 (Homo sapiens, UniProt P43681)
Sequence of Neuronal acetylcholine receptor subunit alpha-4 (P43681 whole entry): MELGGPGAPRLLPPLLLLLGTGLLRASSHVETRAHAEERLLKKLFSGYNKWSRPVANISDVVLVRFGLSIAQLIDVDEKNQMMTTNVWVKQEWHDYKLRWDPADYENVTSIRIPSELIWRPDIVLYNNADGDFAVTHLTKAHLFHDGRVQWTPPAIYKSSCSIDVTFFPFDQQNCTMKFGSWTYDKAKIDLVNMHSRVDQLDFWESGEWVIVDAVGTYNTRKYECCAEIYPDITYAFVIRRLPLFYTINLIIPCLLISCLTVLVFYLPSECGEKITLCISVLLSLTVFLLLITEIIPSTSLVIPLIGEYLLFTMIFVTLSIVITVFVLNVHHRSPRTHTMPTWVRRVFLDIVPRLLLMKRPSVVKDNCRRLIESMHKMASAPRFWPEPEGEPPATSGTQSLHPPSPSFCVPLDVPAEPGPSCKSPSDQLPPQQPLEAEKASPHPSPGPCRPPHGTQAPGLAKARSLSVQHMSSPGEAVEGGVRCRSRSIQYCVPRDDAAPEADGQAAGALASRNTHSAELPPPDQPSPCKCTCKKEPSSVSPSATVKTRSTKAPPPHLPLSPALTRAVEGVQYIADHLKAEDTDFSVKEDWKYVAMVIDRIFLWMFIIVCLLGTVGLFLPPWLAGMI

[8] = molecular target: Kappa-type opioid receptor (Homo sapiens, UniProt P41145)
Sequence of Kappa-type opioid receptor (P41145 whole entry): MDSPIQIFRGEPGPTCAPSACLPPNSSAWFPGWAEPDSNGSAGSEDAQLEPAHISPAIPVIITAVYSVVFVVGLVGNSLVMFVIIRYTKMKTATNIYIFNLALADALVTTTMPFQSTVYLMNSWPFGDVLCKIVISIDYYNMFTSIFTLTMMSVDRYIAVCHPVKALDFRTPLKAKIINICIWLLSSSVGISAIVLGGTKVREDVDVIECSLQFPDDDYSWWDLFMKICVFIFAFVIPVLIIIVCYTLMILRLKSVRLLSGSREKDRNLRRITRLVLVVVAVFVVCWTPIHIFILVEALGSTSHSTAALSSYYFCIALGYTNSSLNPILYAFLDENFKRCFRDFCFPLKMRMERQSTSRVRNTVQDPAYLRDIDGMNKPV

Vasopressin V1a receptor = Vasopressin V1a receptor (Homo sapiens, UniProt P37288)
Sequence of Vasopressin V1a receptor (P37288 whole entry): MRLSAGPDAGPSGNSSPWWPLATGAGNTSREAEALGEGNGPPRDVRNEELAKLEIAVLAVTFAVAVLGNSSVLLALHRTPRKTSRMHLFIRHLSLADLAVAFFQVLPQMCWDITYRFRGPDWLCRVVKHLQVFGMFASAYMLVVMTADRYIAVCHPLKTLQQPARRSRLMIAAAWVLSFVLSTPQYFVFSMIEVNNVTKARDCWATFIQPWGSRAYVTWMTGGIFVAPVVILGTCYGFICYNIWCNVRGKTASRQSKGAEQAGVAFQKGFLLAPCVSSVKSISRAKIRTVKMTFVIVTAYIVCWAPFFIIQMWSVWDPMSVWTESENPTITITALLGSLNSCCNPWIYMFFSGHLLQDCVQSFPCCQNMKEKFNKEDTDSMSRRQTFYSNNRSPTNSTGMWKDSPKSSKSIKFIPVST
Note: assay procedure not described here.

Sequence of Melanocortin receptor 3 (P41968 whole entry): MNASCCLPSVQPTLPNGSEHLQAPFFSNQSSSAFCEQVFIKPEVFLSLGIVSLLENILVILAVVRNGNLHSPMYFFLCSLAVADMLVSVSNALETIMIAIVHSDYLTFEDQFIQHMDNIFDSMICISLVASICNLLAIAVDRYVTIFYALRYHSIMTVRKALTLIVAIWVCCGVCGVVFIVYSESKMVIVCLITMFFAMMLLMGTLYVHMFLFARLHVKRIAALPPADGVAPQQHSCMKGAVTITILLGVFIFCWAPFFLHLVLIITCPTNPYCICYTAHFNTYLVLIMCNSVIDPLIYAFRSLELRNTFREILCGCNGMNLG

| SMILES | AC50 (Melanocortin receptor 3) | AC50 [1] | AC50 (Thromboxane A2 receptor) | AC50 [2] | AC50 [3] | AC50 (D(3) dopamine receptor) | AC50 (Progesterone receptor) | AC50 [4] | AC50 [5] | AC50 [6] | AC50 [7] | AC50 [8] | AC50 (Vasopressin V1a receptor) |
| --- | --- | --- | --- | --- | --- | --- | --- | --- | --- | --- | --- | --- | --- |
| COc1ccc2c(c1)c(CC(=O)OCC(=O)O)c(C)n2C(=O)c1ccc(Cl)cc1 [ACEMETACIN] | > 30 µM | > 30 µM | > 30 µM | > 30 µM | > 30 µM | > 30 µM | > 30 µM | > 30 µM | > 30 µM | > 30 µM | > 30 µM | > 30 µM | – |
| CC(C)c1c(C(=O)Nc2ccccc2)c(-c2ccccc2)c(-c2ccc(F)cc2)n1CC[C@@H](O)C[C@@H](O)CC(=O)O [ATORVASTATIN] | > 30 µM | – | > 30 µM | > 30 µM | – | > 30 µM | – | > 10 µM | – | > 30 µM | > 10 µM | > 10 µM | > 30 µM |
| CCCCN1CCCCC1C(=O)Nc1c(C)cccc1C (configuration not stated) [BUPIVACAINE] | > 30 µM | > 30 µM | > 30 µM | > 30 µM | 11 µM | > 30 µM | > 30 µM | > 30 µM | > 30 µM | > 30 µM | > 30 µM | > 30 µM | – |
| CC(C)(Oc1ccc(C2CC2(Cl)Cl)cc1)C(=O)O (configuration not stated) [CIPROFIBRATE] | > 30 µM | > 30 µM | > 30 µM | > 30 µM | > 30 µM | > 30 µM | > 30 µM | > 30 µM | > 30 µM | > 30 µM | > 30 µM | > 30 µM | – |
| Cc1c(O)c(=O)ccn1C [DEFERIPRONE] | > 30 µM | > 30 µM | > 30 µM | > 30 µM | > 30 µM | > 30 µM | > 30 µM | > 30 µM | > 30 µM | > 30 µM | > 30 µM | > 30 µM | – |
| CC(=O)O[C@@]12CO[C@@H]1C[C@H](O)[C@@]1(C)C(=O)[C@H](O)C3=C(C)[C@@H](OC(=O)[C@H](O)[C@@H](NC(=O)OC(C)(C)C)c4ccccc4)C[C@@](O)([C@@H](OC(=O)c4ccccc4)[C@H]21)C3(C)C [DOCETAXEL ANHYDROUS] | > 30 µM | > 30 µM | > 30 µM | > 30 µM | > 30 µM | > 30 µM | > 30 µM | > 30 µM | > 30 µM | > 30 µM | > 30 µM | > 30 µM | – |
| CCNC(C)Cc1cccc(C(F)(F)F)c1 (configuration not stated) [FENFLURAMINE] | > 30 µM | > 30 µM | > 30 µM | > 30 µM | > 30 µM | 8 µM | – | > 10 µM | > 30 µM | > 30 µM | > 10 µM | 13.4 µM | > 10 µM |
| COc1c(N2CCNC(C)C2)c(F)cc2c(=O)c(C(=O)O)cn(C3CC3)c12 (configuration not stated) [GATIFLOXACIN] | > 10 µM | > 10 µM | > 10 µM | > 10 µM | 24 µM | > 30 µM | > 10 µM | > 10 µM | > 10 µM | > 30 µM | > 10 µM | > 10 µM | – |
| CCN1CCC[C@H]1CNC(=O)c1cc(S(N)(=O)=O)ccc1OC [LEVOSULPIRIDE] | > 30 µM | > 10 µM | > 30 µM | – | > 30 µM | – | – | > 10 µM | > 10 µM | > 30 µM | > 10 µM | > 10 µM | > 30 µM |
| Cc1cccc(C)c1NC(=O)C1CCCCN1C (configuration not stated) [MEPIVACAINE] | > 30 µM | > 30 µM | – | > 30 µM | > 30 µM | > 30 µM | > 30 µM | – | > 30 µM | > 30 µM | > 30 µM | > 30 µM | – |
| COc1ccccc1OCC(O)COC(N)=O (configuration not stated) [METHOCARBAMOL] | > 10 µM | > 10 µM | > 10 µM | > 10 µM | > 30 µM | > 30 µM | > 30 µM | > 10 µM | > 10 µM | > 30 µM | > 10 µM | > 10 µM | – |
| C[C@]12CCC(=O)C=C1CC[C@@H]1[C@@H]2CC[C@@]2(C)[C@H]1CC[C@]2(C)O [METHYLTESTOSTERONE] | > 30 µM | > 30 µM | > 30 µM | > 30 µM | > 30 µM | > 30 µM | 0.2 µM | > 30 µM | > 30 µM | > 30 µM | > 30 µM | > 30 µM | – |
| NC(=O)C[S+]([O-])C(c1ccccc1)c1ccccc1 (configuration not stated) [MODAFINIL] | 21.2 µM | > 10 µM | > 30 µM | > 30 µM | > 30 µM | > 10 µM | – | > 10 µM | > 10 µM | > 10 µM | > 10 µM | > 10 µM | > 10 µM |
| CCN(CC)CCOC(=O)c1ccc(N)cc1 [PROCAINE] | > 30 µM | > 10 µM | – | > 30 µM | > 30 µM | > 30 µM | – | > 10 µM | > 10 µM | > 30 µM | > 10 µM | > 10 µM | – |
| CCCOc1ccc(C(=O)OCCN(CC)CC)cc1N [PROPARACAINE] | > 30 µM | > 30 µM | – | > 30 µM | 6.4 µM | > 30 µM | > 30 µM | – | > 30 µM | > 30 µM | > 30 µM | > 30 µM | – |
| Cc1c(C(=O)Nc2ccc(N3C[C@@H](C)O[C@@H](C)C3)nc2)cccc1-c1ccc(OC(F)(F)F)cc1 [SONIDEGIB] | > 30 µM | – | > 30 µM | > 30 µM | – | – | – | > 10 µM | – | > 10 µM | > 10 µM | > 10 µM | > 10 µM |
